Laboratory results taken from patent US12410148B2, “Antibody drug conjugates” (Pharma Mar, S.A., priority 2013, dated 2025).
Converted amounts (≈) assume the structure as drawn. “And” between values parts separate entries of the source, which are not always exact repeats. Equal entries are not always repeated. Where two headings read alike, the source gives them in different places.

Tests used:
HCC-1954 cells = assay: In vitro cytotoxicity, SRB assay, 72 h dose-response; type: cell-based; conditions: Homo sapiens, HCC1954, 72 h, HER2+; 72 h; read-out: IC50
Excerpt: (§1) Nature Protocols, 1, 1112-1 116.

MDA-MB-231 cells = assay: as above; type: cell-based; conditions: Homo sapiens, MDA-MB-231, 72 h, HER2−; 72 h; read-out: IC50
Excerpt: as §1

MCF-7 cells = assay: as above; type: cell-based; conditions: Homo sapiens, MCF7, 72 h, HER2−; 72 h; read-out: IC50
Excerpt: as §1

NB-4 cells = assay: In vitro cytotoxicity, MTT assay, 72 h dose-response; type: cell-based; conditions: Homo sapiens, CD13+
Description: (§5) Briefly, MTT solution was added to the cell cultures at a final concentration of 0.5 mg/mL, and incubated for 1 to 4 hours at 37° C. until formazan crystals are formed. Culture medium is carefully removed from the cell cultures and formazan crystals resuspended in 100 μl DMSO. […] Cell survival was expressed as percentage of control, untreated cell survival.

SK-BR-3 cells = assay: In vitro cytotoxicity, SRB assay, 72 h dose-response; type: cell-based; conditions: Homo sapiens, SK-BR-3, 72 h, HER2+; 72 h; read-out: IC50
Excerpt: All tumor cell lines used in this study were obtained from the American Type Culture Collection (ATCC), unless otherwise indicated; BT-474 (ATCC HTB-20, Breast Ductal Carcinoma), SK-BR-3 (ATCC HTB-30, Breast Adenocarcinoma) and HCC-1954 (ATCC CRL-2338, Breast Ductal Carcinoma), all HER2+; MDA-MB-231 (ATCC HTB-26, Breast Adenocarcinoma) and MCF-7 (ATCC HTB-22 Breast Adenocarcinoma, pleural effusion), all HER2-; SK-OV-3 (ATCC HTB-77, Ovary Adenocarcinoma), HER2+; NB-4 (Acute Promyelocytic Leukemia, APL, CD13+, M. Lanotte et al. (1991) NB4, a maturation inducible cell line with t(15;17) marker isolated from a human acute promyelocytic leukemia (M3). […] Cells were maintained at 37° C., 5% CO 2 and 95% humidity in Dulbecco's Modified Eagle's Medium (DMEM) (for MCF and MDA-MB-231 cells), RPMI-1640 (for SK-BR-3, HCC-1954, NB-4, U937, Raji, RPMI-8226, Karpas-299, MOLT-4, Raji-clone #10 and Raji-clone #18 cells), RPMI-1640+1% ITS (for BT-474 cells) or McCOyS (for SK-OV-3 cells), all media supplemented with 10% Fetal Calf Serum (FCS) and 100 units/mL penicillin and streptomycin.
For adherent cells: A colorimetric assay using sulforhodamine B (SRB) was adapted for quantitative measurement of cell growth and cytotoxicity, as described in V. Vichai and K. Kirtikara (2006) Sulforhodamine B colorimetric assay for cytotoxicity screening. […] Briefly, cells were seeded in 96-well microtiter plates and allowed to stand for 24 hours in drug-free medium before treatment with vehicle alone or the indicated compounds for 72 hours. For quantification, cells were washed twice with phosphate buffered saline (PBS), fixed for 15 min in 1% glutaraldehyde solution, rinsed twice with PBS, stained in 0.4% SRB-1% acetic acid solution for 30 min, rinsed several times with 1% acetic acid solution and air-dried. SRB was then extracted in 10 mM trizma base solution and the optical density measured at 490 nm in a microplate spectrophotometer. Cell survival was expressed as percentage of control, untreated cell survival.

Raji cells = assay: In vitro cytotoxicity, MTT assay, 72 h dose-response; type: cell-based, human; conditions: Homo sapiens, Raji, CD13−, CD20+, CD5−, CD4−, read-out: IC50
Description: as §5

[1] = tested on: NB4, U937, Raji and RPMI-8226 cells; assay: In vitro cytotoxicity, whole CD13 cell panel; conditions: for IC50: Homo sapiens
Excerpt: (§2) All tumor cell lines used in this study were obtained from the American Type Culture Collection (ATCC), unless otherwise indicated; BT-474 (ATCC HTB-20, Breast Ductal Carcinoma), SK-BR-3 (ATCC HTB-30, Breast Adenocarcinoma) and HCC-1954 (ATCC CRL-2338, Breast Ductal Carcinoma), all HER2+; MDA-MB-231 (ATCC HTB-26, Breast Adenocarcinoma) and MCF-7 (ATCC HTB-22 Breast Adenocarcinoma, pleural effusion), all HER2-; SK-OV-3 (ATCC HTB-77, Ovary Adenocarcinoma), HER2+; NB-4 (Acute Promyelocytic Leukemia, APL, CD13+, M. Lanotte et al. (1991) NB4, a maturation inducible cell line with t(15;17) marker isolated from a human acute promyelocytic leukemia (M3). Blood 77, 1080-1086), (CD13+) and U937 (ATCC CRL-1 593.2, Histiocytic Lymphoma, CD13+ and CD4+); Raji (ATCC CCL-86, Burkitt's Lymphoma) (CD13−, CD20+, CD5−, and CD4−); RPMI-8226 (ATCC CRM-CCL-155, Multiple Myeloma) (CD13−, CD20−, CD5− and CD4−); Karpas-299 (DSMZ ACC-31, Non-Hodgkin's Lymphoma) (CD20−, CD5+, and CD4+); MOLT-4 (ATCC CRL-1 582, Acute Lymphoblastic Leukemia, CD5+). In addition, the two Raji cell (ATCC CCL-86, Burkitt's Lymphoma) clones used in this study Raji-clone #10 (high CD5 expression) and Raji-clone18 (null CD5 expression), were provided by Dr. Juan M. Zapata (Instituto de Investigaciones Biomedicas “Alberto Sols”, CSIC-UAM, Madrid, Spain). Cells were maintained at 37° C., 5% CO 2 and 95% humidity in Dulbecco's Modified Eagle's Medium (DMEM) (for MCF and MDA-MB-231 cells), RPMI-1640 (for SK-BR-3, HCC-1954, NB-4, U937, Raji, RPMI-8226, Karpas-299, MOLT-4, Raji-clone #10 and Raji-clone #18 cells), RPMI-1640+1% ITS (for BT-474 cells) or McCOyS (for SK-OV-3 cells), all media supplemented with 10% Fetal Calf Serum (FCS) and 100 units/mL penicillin and streptomycin.
(§3) For suspension cells: A standard metabolic assay using MTT (3-(4,5-Dimethylthiazol-2-yl)-2,5-diphenyltetrazolium bromide) was adapted for quantitative measurement of cell growth and cytotoxicity, as described in T. Mosmann (1983) Rapid colorimetric assay for cellular growth and survival: Application to proliferation and cytotoxicity assays. J. Immunol. Meth., 65, 55-63. Briefly, MTT solution was added to the cell cultures at a final concentration of 0.5 mg/mL, and incubated for 1 to 4 hours at 37° C. until formazan crystals are formed. Culture medium is carefully removed from the cell cultures and formazan crystals resuspended in 100 μl DMSO. After mixing to assure solubilization, the quantity of formazan (presumably directly proportional to the number of viable cells) is measured by recording changes in absorbance at 570 nm using a plate reading spectrophotometer. Cell survival was expressed as percentage of control, untreated cell survival.
(§4) The IC50 value refers to the concentration of compound inducing a 50% of cell death as compared to the control cell survival.
The in vitro cytotoxic activity of ADC9 along with the parent cytotoxic Compounds 1 and 4, was evaluated against different human tumor cell lines expressing or not the CD13 receptor, including NB4 and U937 (CD13 positive cells) and Raji and RPMI-8226 (CD13 negative cells). Standard dose-response (DR) curves for 72 hours were performed.

[2] = tested on: HCC-1954, SK-BR-3, MDA-MB-231 and MCF-7 cells; assay: In vitro cytotoxicity, whole breast cancer cell panel; conditions: for IC50: Homo sapiens
Excerpt: as §2
For adherent cells: A colorimetric assay using sulforhodamine B (SRB) was adapted for quantitative measurement of cell growth and cytotoxicity, as described in V. Vichai and K. Kirtikara (2006) Sulforhodamine B colorimetric assay for cytotoxicity screening. Nature Protocols, 1, 1112-1 116. Briefly, cells were seeded in 96-well microtiter plates and allowed to stand for 24 hours in drug-free medium before treatment with vehicle alone or the indicated compounds for 72 hours. For quantification, cells were washed twice with phosphate buffered saline (PBS), fixed for 15 min in 1% glutaraldehyde solution, rinsed twice with PBS, stained in 0.4% SRB-1% acetic acid solution for 30 min, rinsed several times with 1% acetic acid solution and air-dried. SRB was then extracted in 10 mM trizma base solution and the optical density measured at 490 nm in a microplate spectrophotometer. Cell survival was expressed as percentage of control, untreated cell survival.
as §4
Standard dose-response (DR) curves for 72 hours were performed.

RPMI-8226 cells = assay: In vitro cytotoxicity, MTT assay, 72 h dose-response; type: cell-based, human; conditions: Homo sapiens, RPMI-8226, 72 h, CD13−, CD20−, CD5−, CD4−, read-out: IC50
Description: as §5

U937 cells = assay: as above; type: cell-based, human; conditions: Homo sapiens, U-937, 72 h, CD13+, CD4+, read-out: IC50
Description: as §5

[3] = tested on: Raji-clone #18 (null CD5 expression); assay: as above; type: cell-based; conditions: Homo sapiens, C#18 (null CD5)
Description: as §5

[4] = tested on: Karpas-299, U937, Raji and RPMI-8226 cells; assay: In vitro cytotoxicity, whole CD4 cell panel; conditions: for IC50: Homo sapiens
Excerpt: as §2, §3, §4
The in vitro cytotoxic activity of ADC16 along with the parent cytotoxic Compounds 1, 4, and 40, was evaluated against different human cancer cell lines expressing or not the CD4 antigen, including Karpas-299 and U937 (both CD4+); Raji and RPMI-8226 (both CD4−). Standard dose-response (DR) curves for 72 hours were performed.

[5] = tested on: Raji-clone #10 (high CD5 expression); assay: In vitro cytotoxicity, MTT assay, 72 h dose-response; type: cell-based; conditions: Homo sapiens
Description: as §5

[6] = tested on: Raji, RPMI-8226 and Karpas-299 cells; assay: In vitro cytotoxicity, whole CD20 cell panel; conditions: Homo sapiens
Excerpt: as §2, §3, §4
The in vitro cytotoxic activity of ADC12 along with the parent cytotoxic Compounds 1, 4, and 40, was evaluated was assayed against different human cancer cell lines expressing or not the CD20 antigen, including Raji (CD20 positive cells); RPMI-8226 and Karpas-299 (CD20 negative cells). Standard dose-response (DR) curves for 72 hours were performed.

[7] = read-out: IC50 values across the different cell lines tested (range)
[8] = read-out: mean IC50 value across the whole cell panel
[9] = read-out: IC50 values along the different cell lines tested (range), four breast cell lines
[10] = read-out: mean IC50 value across the whole cell panel, four breast cell lines
[11] = long maleimide containing linker

SMILES: COC1=CC[C@@H]([C@@H](C)/C=C(C)/C=C\C=C/C(=O)N[C@H](C(=O)N/C=C\C[C@H](C/C=C(\C)Cl)OC(=O)NCCCNC(=O)CCS)C(C)(C)C)OC1=O [Compound 13]
- IC50 (HCC-1954 cells): 0.00149 µg/mL and 1.98 nM
- IC50 (MDA-MB-231 cells): 0.00263 µg/mL and 3.5 nM
- IC50 (MCF-7 cells): 0.00243 µg/mL and 3.23 nM
- IC50 (NB-4 cells): 0.0017 µg/mL and 2.26 nM
- IC50 (SK-BR-3 cells): 0.000795 µg/mL and 1.06 nM
- IC50 (Raji cells): 0.0103 µg/mL and 13.7 nM
- IC50 [1, 7]: 0.0017 µg/mL to 0.01 µg/mL and 2.7 nM to 14 nM
- IC50 [1, 8]: 0.0043 µg/mL and 5.7 nM
- reduction of cytotoxic activity as compared to Compound 40 ([1]; thiol containing tail): less than 1 log
- IC50 [2, 9]: 0.795 to 2.63 ng/mL (≈ 1.06 to 3.5 nM)
- IC50 [2, 10]: 0.00183 µg/mL and 2.44 nM
- decrease of cytotoxic activity as compared to Compound 4 ([2]; thiol containing tail): about 5 fold
- IC50 (RPMI-8226 cells): 0.0023 µg/mL and 3.06 nM
- IC50 (U937 cells): 0.00285 µg/mL and 3.8 nM

SMILES: COC1=CC[C@@H]([C@@H](C)/C=C(C)/C=C\C=C/C(=O)N[C@H](C(=O)N/C=C\C[C@H](C/C=C(\C)Cl)OC(=O)NCCCNC(=O)OCc2ccc(NC(=O)[C@H](CCCNC(N)=O)NC(=O)[C@@H](NC(=O)CCCCCN3C(=O)C=CC3=O)C(C)C)cc2)C(C)(C)C)OC1=O [Compound 12]
- IC50 (HCC-1954 cells): 0.0076 µg/mL and 6.02 nM
- IC50 (MDA-MB-231 cells): 0.018 µg/mL and 14.3 nM
- IC50 (MCF-7 cells): 0.0305 µg/mL and 24.2 nM
- IC20 [3]: 0.2 µg/mL and 159 nM
- IC50 [3]: > 792 nM and > 1 µg/mL
- IC50 (NB-4 cells): 0.00445 µg/mL and 3.53 nM
- IC50 (SK-BR-3 cells): 0.00905 µg/mL and 7.18 nM
- IC50 [1, 7]: 0.0044 µg/mL to 0.048 µg/mL and 3.5 nM to 38 nM
- IC50 [1, 8]: 0.02 µg/mL and 16 nM
- decrease of cytotoxic activity as compared to Compound 4 ([1]; long linker): ~1 log
- IC50 [2, 9]: 0.0076 µg/mL to 0.0305 µg/mL and 6.02 nM to 24.2 nM
- IC50 [2, 10]: 0.0163 µg/mL and 12.9 nM
- IC50 [4, 7]: 0.073 µg/mL to 0.41 µg/mL and 58 nM to 320 nM
- IC50 [4, 8]: 0.17 µg/mL and 130 nM
- reduction of cytotoxic activity as compared to Compound 4 [4, 11]: ~2 log
- reduction of cytotoxic activity as compared to Compound 40 [4, 11]: ~3 log
- IC20 ([5]; C#10 (high CD5)): 0.15 µg/mL and 119 nM
- IC50 ([5]; C#10 (high CD5)): 0.27 µg/mL and 214 nM
- IC50 ([5]; clone #10, CD5 expressing): 215 nM
- IC50 [6, 7]: 0.022 µg/mL to 0.067 µg/mL and 18 nM to 55 nM
- IC50 [6, 8]: 0.039 µg/mL and 31 nM
